Assay results taken from patent US5250283A, “Organic contrast agent analog and method of making same” (priority 1992, dated 1993).
Like-named read-outs stand apart in the source and are kept apart here.

How the values were obtained:
[1] = Urinary excretion after i.v. IOP or TFA-IOP in rats; format: in vivo; conditions: rat
[2] = Plasma concentration after i.v. IOP or TFA-IOP in rats; format: in vivo; conditions: plasma, iv, 100 umol/kg, rat
[3] = Tissue distribution 90 min after i.v. TFA-IOP (100 umol/kg) or IOP (100 in text, 104 umol/kg in tables) in rats; format: in vivo; conditions: rat; for concentration at 1.5 h: 100 umol/kg; for concentration at 1.5 h / uMoles per gram tissue / uMoles per kg / Percentage of dose in tissue: i.v.; for Percentage of dose in tissue: Table 6; for tissue uptake at 1.5 h: read-out: Percentage of dose per gram
Source text: No standard curves were compiled for these tissues. The values given
represent concentrations generated using the LIVER analysis routine and
standard curve. Because this routine utilizes a control LIVER spectra for
background modeling, erroneous Iodine concentration values for these
tissues may result due to inappropriate background removal.

[4] = Biliary excretion and bile flow after i.v. TFA-IOP (100 umol/kg) or IOP (100 in text, 104 umol/kg in tables) in rats; conditions: for Percentage of dose per kg. body wt.: rat bile; for Percentage of dose per kg. body wt. / Bile flow / Bile flow per kg b.w. / Bile flow per kg l.w.: i.v.
Method: Tissues examined included liver, spleen, upper GI, lower GI, kidney, lung and heart. The length of each study was 90 minutes, during which time bile, urine and plasma samples were taken to monitor uptake and excretion. NMR relaxation rates for liver and plasma were also examined to note whether uptake of either compound might possible alter these parameters.

## CCC(Cc1c(I)cc(I)c(N)c1I)C(=O)O (centres unmarked) [IOP, iopanoic acid, reference compound]
[1]; 0-20 min
  Urine concentration: 0 µM
[1]; 20-40 min
  Urine concentration: 0 µM
[1]; 40-60 min
  Urine concentration: 0 µM
[1]; 60-80 min
  Urine concentration: 0 µM
[1]; 80-90 min
  Urine concentration: 0 µM
[2]; 30 min
  concentration at 0.5 h: 557 µM
[2]; 50 min
  concentration at 50 min: 508 µM
[2]; 60 min
  concentration at 1 h: 462 µM
[2]; 70 min
  concentration at 70 min: 462 µM
[2]; 80 min
  concentration at 80 min: 404 µM
[2]; 90 min
  concentration at 1.5 h: 373 µM
[3]; heart, iv, 90 min, liver standard curve used, may be erroneous, read-out: Heart concentration
  concentration at 1.5 h: 259 µM
[3]; 90 min, heart
  uMoles per gram tissue: .26 uMOLES per gram
  uMoles per kg: 259.38 uMOLES per kg
  Percentage of dose in tissue: .72 PERCENTAGE OF DOSE
[3]; 90 min, kidney
  uMoles per gram tissue: .11 uMOLES per gram
  uMoles per kg: 105.40 uMOLES per kg
  Percentage of dose in tissue: .69 PERCENTAGE OF DOSE
[3]; 90 min, liver
  uMoles per gram tissue: .51 uMOLES per gram
  uMoles per kg: 511.90 uMOLES per kg
  Percentage of dose in tissue: 14.52 PERCENTAGE OF DOSE
[3]; 90 min, lower GI
  uMoles per gram tissue: .14 uMOLES per gram
  uMoles per kg: 135.23 uMOLES per kg
  Percentage of dose in tissue: .59 PERCENTAGE OF DOSE
[3]; 90 min, lung
  uMoles per gram tissue: .32 uMOLES per gram
  uMoles per kg: 324.91 uMOLES per kg
  Percentage of dose in tissue: 1.21 PERCENTAGE OF DOSE
[3]; 90 min, spleen
  uMoles per gram tissue: .26 uMOLES per gram
  uMoles per kg: 255.54 uMOLES per kg
  Percentage of dose in tissue: .45 PERCENTAGE OF DOSE
[3]; 90 min, upper GI
  uMoles per gram tissue: .31 uMOLES per gram
  uMoles per kg: 307.91 uMOLES per kg
  Percentage of dose in tissue: 1.31 PERCENTAGE OF DOSE
[3]; in vivo, iv, 90 min
  % of dose in heart: 0.72%
  % of dose in kidney: 0.69%
  % of dose in liver: 14.53%
  % of dose in lower GI: 0.59%
  % of dose in lung: 1.21%
  % of dose in spleen: 0.45%
  % of dose in upper GI: 1.31%
[3]; in vivo, iv, 90 min, heart
  tissue uptake at 1.5 h: 0.61 %ID/g
[3]; in vivo, iv, 90 min, kidney
  tissue uptake at 1.5 h: 0.25 %ID/g
[3]; in vivo, iv, 90 min, liver
  tissue uptake at 1.5 h: 1.21 %ID/g
[3]; in vivo, iv, 90 min, lower GI
  tissue uptake at 1.5 h: 0.32 %ID/g
[3]; in vivo, iv, 90 min, lung
  tissue uptake at 1.5 h: 0.77 %ID/g
[3]; in vivo, iv, 90 min, spleen
  tissue uptake at 1.5 h: 0.61 %ID/g
[3]; in vivo, iv, 90 min, upper GI
  tissue uptake at 1.5 h: 0.73 %ID/g
[3]; kidney, iv, 90 min post injection, read-out: Kidney concentration
  concentration at 1.5 h: 105 µM
[3]; kidney, iv, 90 min post injection, read-out: kidney concentration
  concentration at 1.5 h: 105 µM
[3]; liver, iv, 90 min post injection, read-out: Liver concentration
  concentration at 1.5 h: 512 µM
[3]; liver, iv, 90 min post injection, read-out: liver concentration
  concentration at 1.5 h: 512 µM
[3]; lower gi, iv, 90 min, liver standard curve used, may be erroneous, read-out: Lower GI concentration
  concentration at 1.5 h: 135 µM
[3]; lung, iv, 90 min, liver standard curve used, may be erroneous, read-out: Lung concentration
  concentration at 1.5 h: 325 µM
[3]; spleen, iv, 90 min, liver standard curve used, may be erroneous, read-out: Spleen concentration
  concentration at 1.5 h: 256 µM
[3]; upper gi, iv, 90 min, liver standard curve used, may be erroneous, read-out: Upper GI concentration
  concentration at 1.5 h: 308 µM
[4]; 0-10 min
  Percentage of dose per kg. body wt.: 1.29 PERCENTAGE OF DOSE per kg. bod
[4]; 10-20 min
  Percentage of dose per kg. body wt.: 4.38 PERCENTAGE OF DOSE per kg. bod
[4]; 20-30 min
  Percentage of dose per kg. body wt.: 6.60 PERCENTAGE OF DOSE per kg. bod
[4]; 30-40 min
  Percentage of dose per kg. body wt.: 5.61 PERCENTAGE OF DOSE per kg. bod
[4]; 40-50 min
  Percentage of dose per kg. body wt.: 6.55 PERCENTAGE OF DOSE per kg. bod
[4]; 50-60 min
  Percentage of dose per kg. body wt.: 3.86 PERCENTAGE OF DOSE per kg. bod
[4]; 60-70 min
  Percentage of dose per kg. body wt.: 4.71 PERCENTAGE OF DOSE per kg. bod
[4]; 70-80 min
  Percentage of dose per kg. body wt.: 4.61 PERCENTAGE OF DOSE per kg. bod
[4]; 80-90 min
  Percentage of dose per kg. body wt.: 5.45 PERCENTAGE OF DOSE per kg. bod
[4]; rat, bile, iv, 100 umol/kg
  Cmax at 1.5 h: 10000 µM
  concentration at 5 min: 1610 µM
  concentration at 10 min: 1610 µM
  concentration at 0.25 h: 8660 µM
  concentration at 20 min: 8660 µM
  concentration at 25 min: 10500 µM
  concentration at 0.5 h: 10500 µM
  concentration at 35 min: 9850 µM
  concentration at 40 min: 9850 µM
  concentration at 50 min: 9670 µM
  concentration at 55 min: 7320 µM
  concentration at 1 h: 7320 µM
  concentration at 65 min: 7530 µM
  concentration at 70 min: 7530 µM
  concentration at 1.25 h: 7760 µM
  concentration at 80 min: 7760 µM
  concentration at 85 min: 9560 µM
  concentration at 1.5 h: 9560 µM
  dose excreted at 1.5 h: 18%
[4]; rat, 0-10 min
  Bile flow: .01375 mL/min
  Bile flow per kg b.w.: .03386 ml/min per kg b.w.
  Bile flow per kg l.w.: 1.147 ml/min per kg l.w.
[4]; rat, 10-20 min
  Bile flow: .00867 mL/min
  Bile flow per kg b.w.: .02136 ml/min per kg b.w.
  Bile flow per kg l.w.: .72404 ml/min per kg l.w.
[4]; rat, 20-30 min
  Bile flow: .01077 mL/min
  Bile flow per kg b.w.: .02652 ml/min per kg b.w.
  Bile flow per kg l.w.: .89866 ml/min per kg l.w.
[4]; rat, 30-40 min
  Bile flow: .00977 mL/min
  Bile flow per kg b.w.: .02406 ml/min per kg b.w.
  Bile flow per kg l.w.: .81528 ml/min per kg l.w.
[4]; rat, 40-50 min
  Bile flow: .01161 mL/min
  Bile flow per kg b.w.: .02861 ml/min per kg b.w.
  Bile flow per kg l.w.: .96953 ml/min per kg l.w.
[4]; rat, 50-60 min
  Bile flow: .00904 mL/min
  Bile flow per kg b.w.: .02225 ml/min per kg b.w.
  Bile flow per kg l.w.: .75417 ml/min per kg l.w.
[4]; rat, 60-70 min
  Bile flow: .01072 mL/min
  Bile flow per kg b.w.: .02640 ml/min per kg b.w.
  Bile flow per kg l.w.: .89457 ml/min per kg l.w.
[4]; rat, 70-80 min
  Bile flow: .01018 mL/min
  Bile flow per kg b.w.: .02506 ml/min per kg b.w.
  Bile flow per kg l.w.: .84942 ml/min per kg l.w.
[4]; rat, 80-90 min
  Bile flow: .00977 mL/min
  Bile flow per kg b.w.: .02407 ml/min per kg b.w.
  Bile flow per kg l.w.: .81586 ml/min per kg l.w.
[4]; rat, in vivo, iv, 100 umol/kg, Percentage of dose in bile sample, 0-10 min
  dose excreted at 10 min: 0.52%
[4]; rat, in vivo, iv, 100 umol/kg, Percentage of dose in bile sample, 10-20 min
  dose excreted at 20 min: 1.78%
[4]; rat, in vivo, iv, 100 umol/kg, Percentage of dose in bile sample, 20-30 min
  dose excreted at 0.5 h: 2.68%
[4]; rat, in vivo, iv, 100 umol/kg, Percentage of dose in bile sample, 30-40 min
  dose excreted at 40 min: 2.28%
[4]; rat, in vivo, iv, 100 umol/kg, Percentage of dose in bile sample, 40-50 min
  dose excreted at 50 min: 2.66%
[4]; rat, in vivo, iv, 100 umol/kg, Percentage of dose in bile sample, 50-60 min
  dose excreted at 1 h: 1.57%
[4]; rat, in vivo, iv, 100 umol/kg, Percentage of dose in bile sample, 60-70 min
  dose excreted at 70 min: 1.91%
[4]; rat, in vivo, iv, 100 umol/kg, Percentage of dose in bile sample, 70-80 min
  dose excreted at 80 min: 1.87%
[4]; rat, in vivo, iv, 100 umol/kg, Percentage of dose in bile sample, 80-90 min
  dose excreted at 1.5 h: 2.21%
[4]; rat, in vivo, iv, 100 umol/kg, Percentage of dose running total in bile, through 0-10 min
  dose excreted at 10 min: 0.52%
[4]; rat, in vivo, iv, 100 umol/kg, Percentage of dose running total in bile, through 10-20 min
  dose excreted at 20 min: 2.3%
[4]; rat, in vivo, iv, 100 umol/kg, Percentage of dose running total in bile, through 20-30 min
  dose excreted at 0.5 h: 4.98%
[4]; rat, in vivo, iv, 100 umol/kg, Percentage of dose running total in bile, through 30-40 min
  dose excreted at 40 min: 7.26%
[4]; rat, in vivo, iv, 100 umol/kg, Percentage of dose running total in bile, through 40-50 min
  dose excreted at 50 min: 9.92%
[4]; rat, in vivo, iv, 100 umol/kg, Percentage of dose running total in bile, through 50-60 min
  dose excreted at 1 h: 11.5%
[4]; rat, in vivo, iv, 100 umol/kg, Percentage of dose running total in bile, through 60-70 min
  dose excreted at 70 min: 13.4%
[4]; rat, in vivo, iv, 100 umol/kg, Percentage of dose running total in bile, through 70-80 min
  dose excreted at 80 min: 15.3%
[4]; rat, in vivo, iv, 100 umol/kg, Percentage of dose running total in bile, through 80-90 min
  dose excreted at 1.5 h: 17.5%
